Data as given in PubChem BioAssay AID2202558 (NIEHS Division of Translational Toxicology (DTT)).
Results filed as inconclusive are left out. The source made the active and inactive calls. No rule for the calls is given here. *1 amine or outer side, *2 acyl side, *3 side chain or, on linkers, in order; H or OH if unused. Where a SMILES comes first, the peptide text is derived from it. Bridges are numbered along the chain shown (N, C = ends). Roman numbers before positions name the chains, in order. [ ]: non-standard residue; d: D form. Actinocin(9to1) = Cc1c2oc3c(C)ccc(C(=O)[*:1])c3nc-2c(C(=O)[*:2])c(N)c1=O; NMeV = CN[C@H](C(=O)O)C(C)C; Sar = CNCC(=O)O

Tested on: mouse/rat in vivo micronucleus assay, summary call
Experiment: In vivo micronucleus assay summary data
Source text: The erythrocyte micronucleus test examines the ability of substances to cause chromosome damage in developing red blood cells inside bone marrow. A micronucleus (literally, "little nucleus") is a biomarker of structural chromosome damage (e.g., breaks) and changes in chromosome number (e.g., chromosome loss). If a chromosome is broken or fails to migrate properly with other chromosomes during cell division, the broken piece or lost chromosome will form a small (micro) nucleus of its own in one of the two daughter cells produced. Detection of chromosomal damage is important because it has been linked to birth defects, infertility, and certain diseases, including cancer.
The micronucleus test is performed in rapidly dividing cell populations, and bone marrow is a site of rapid blood cell division. Both bone marrow and peripheral blood samples can be examined for the presence of micronuclei in red blood cells.
Animals are treated with a test substance once or daily over a period of time, and the frequency of micronucleated cells is determined 24-48 hours after the final treatment, depending on the source of the cells (bone marrow or blood) that are examined and the treatment regimen.
The test subjects are rodents (rats or mice) that are exposed to the test substance, usually by oral gavage or injection. Typically, one to three daily treatments of the test substance are administered over a range of doses; the highest dose tested is near the maximum tolerated dose. Groups of negative and positive control animals are included for each test. Bone marrow samples are obtained from all animals 24 hours after the last treatment, and red blood cells are examined for the presence of micronuclei.
B. Peripheral Blood Tests
Micronucleus tests are performed on male and female rodents that are exposed to the test substance orally, dermally, or by inhalation in subchronic (e.g., 28 or 90 days) or short term (e.g., 48-72 hours) toxicity studies. 24 to 48 hours after the final exposure, peripheral blood samples are obtained and red blood cells are examined for the presence of micronuclei. Samples may be examined using standard slide scoring procedures or automated flow cytometric approaches. Since 2007, NTP has routinely relied on flow cytometry to evaluate the frequency of micronucleated cells in peripheral blood.
Peripheral blood micronucleus assays are typically integrated into all NTP toxicity studies, and they also lend themselves to serial monitoring of micronucleus frequencies over time, since blood samples can be obtained without the need to sacrifice the animals.
Blood or bone marrow samples from treated animals are compared to samples from untreated animals. With the slide-based approach for data acquisition, 1000-2000 cells were scored per animal. Using flow cytometric procedures to evaluate blood samples, 20,000 immature red blood cells and around one million mature red blood cells are examined per animal, resulting in a marked increase in the ability to detect small changes in the frequency of micronucleated red blood cells. The data is analyzed using statistical methods to determine if there is a significant increase in the frequency of cells containing micronuclei. Both dose-related responses and the magnitude of response for each independent dose group are considered during the evaluation of the data. For a positive test, both a significant dose response (trend) and at least one significant dose group are required. If only one of these measures is present, the test is determined to be questionable. The absence of either condition results in a negative test. The final conclusions for micronucleus tests are determined by considering the results of statistical analyses, reproducibility of any observed effects, and the magnitude of the effects. Ultimately, both the biological significance as well as statistical significance is considered when reaching a final conclusion.
[…]

| SMILES | outcome |
| --- | --- |
| Cc1c2oc3c(C)ccc(C(=O)N[C@@H]4C(=O)N[C@H](C(C)C)C(=O)N5CCC[C@H]5C(=O)N(C)CC(=O)N(C)[C@@H](C(C)C)C(=O)O[C@@H]4C)c3nc-2c(C(=O)N[C@@H]2C(=O)N[C@H](C(C)C)C(=O)N3CCC[C@H]3C(=O)N(C)CC(=O)N(C)[C@@H](C(C)C)C(=O)O[C@@H]2C)c(N)c1=O (I: T[dV]P[Sar][NMeV] / II: T[dV]P[Sar][NMeV]; ester I:1-I:C, II:1-II:C; linker I:N-II:N via Actinocin(9to1)) | active; positive |
| [O]=[Sb][O][Sb]=[O] | active; positive |
| OC(O)C(Cl)(Cl)Cl | active; positive |
| CN(C)CCC(c1ccc(Cl)cc1)c1ccccn1 (centres undefined) | inactive; negative |
| c1ccc(N=NNc2ccccc2)cc1 | active; positive |
| C=CCOCC1CO1 (centres undefined) | active; positive |
| CCOC(N)=O | active; positive |
| C=CC(=O)OCC(CO)(COC(=O)C=C)COC(=O)C=C | active; positive |
| CN(C)c1ccc(C(=C2C=CC(=[N+](C)C)C=C2)c2ccccc2)cc1 | inactive; negative |
| O=C1C=CCCC1 | inactive; negative |
| Cc1cnc[nH]1 | inactive; negative |
| COc1cccc2c1C(=O)c1c(O)c3c(c(O)c1C2=O)C[C@@](O)(C(=O)CO)C[C@@H]3O[C@H]1C[C@H](N)[C@H](O)[C@H](C)O1 | active; positive |
| O=[N+]([O-])C(Br)=Cc1ccccc1 | active; positive |
| OCc1c[nH]c2ccccc12 | inactive; negative |
| CCCCC(CC)COC(=O)c1ccccc1C(=O)OCC(CC)CCCC (centres undefined) | active; positive |
| Nc1nc(=O)n([C@@H]2CS[C@H](CO)O2)cc1F | active; positive |
| Cc1cn([C@H]2C=C[C@@H](CO)O2)c(=O)[nH]c1=O | active; positive |
| OCC1CO1 (centres undefined) | active; positive |
| ClCC(Cl)(Cl)Cl | active; positive |
| Nc1cc([N+](=O)[O-])ccc1O | inactive; negative |
| C[N+](C)(C)Cc1ccccc1 | active; positive |
| Clc1ccc(N=Nc2ccc(Cl)c(Cl)c2)cc1Cl | active; positive |
| Nc1ccccc1 | active; positive |
| COc1cc(Cc2cnc(N)nc2N)cc(OC)c1OC (tested in a mixture with another compound) | active; positive |
| BrCCBr | active; positive |

| SMILES | outcome |
| --- | --- |
| C=CCO | inactive; negative |
| [O-][N+](=Nc1ccc(Cl)c(Cl)c1)c1ccc(Cl)c(Cl)c1 | active; positive |
| CC(C)=CCl | active; positive |
| Cc1ccc([N+](=O)[O-])cc1 | inactive; negative |
| CC[C@H](CC[C@@H](C)[C@H]1CC[C@H]2[C@@H]3CC=C4C[C@@H](O)CC[C@]4(C)[C@H]3CC[C@]12C)C(C)C | inactive; negative |
| Nc1ccc(S(=O)(=O)Nc2ccccn2)cc1 | active; positive |
| Cc1cc(O)c2c(c1)C(=O)c1cc(O)cc(O)c1C2=O | active; positive |
| CC(C)(C)O | inactive; negative |
| Cc1cccc([N+](=O)[O-])c1 | inactive; negative |
| [O-][Br+2]([O-])O | active; positive |
| Nc1ccccc1Cl | active; negative |
| CC(CCl)OP(=O)(OC(C)CCl)OC(C)CCl (centres undefined) | active; positive |
| [O]=[Cr](=[O])([OH])[O][Cr](=[O])(=[O])[OH] | active; positive |
| O=C(O)CCCc1ccc(N(CCCl)CCCl)cc1 | active; positive |
| Cc1ccc(S(N)(=O)=O)cc1 | inactive; negative |
| C=CC(=O)NCCNC(=O)C=C | active; positive (nonstandard protocol) |
| FC(F)(F)c1ccc(Cl)cc1 | active; positive |
| O=C(O)C(Cl)Cl | active; positive |
| O=C(O)C(F)(F)C(F)(F)C(F)(F)C(F)(F)C(F)(F)C(F)(F)C(F)(F)F | active |
| CCOS(C)(=O)=O | active; positive |
| S=c1[nH]c2ccccc2s1 | inactive; negative |
| C=C(C)C#N | inactive; negative |
| CCC(=O)C(C)=O | inactive; negative |
| CCCOC(=O)c1cc(O)c(O)c(O)c1 | active; positive |
